Results on six compounds are retold here after patent US20090105189A1, “METHODS AND COMPOSITIONS FOR AMELIORATING OR INHIBITING DECLINE IN MEMORY OR INTELLIGENCE OR IMPROVING SAME” (priority 2006, published 2009).

Common to all, as to format: cell-based
The subject of assay [1] is P2Y receptors. Description: P2Y receptor antagonism of uridine-enhanced NGF-stimulated neurite outgrowth in PC12 cells. The note with it: PC12, 4 days, uridine 100 μM. The protocol: (§1) PC12 cells were sparsely plated on collagen-coated 60 mm culture dishes in MEM containing 1% fetal bovine serum. […] All treatments were performed 24 h after plating. At the end of the treatment period, images were obtained with a phase-contrast Zeiss Axioplan 2 microscope, using OpenLab software. Six digital images were captured for each dish, for a total of 18 to 24 images per treatment group. Approximately 300 cells were quantified for each treatment group for each experiment. Experiments were performed in triplicate. Quantification of neurites, including neurite branching and neurite length, was performed by one more researchers blinded to experimental groups. Neurite length was measured using the public domain NIH software “Image J.” Processes longer than the diameter of the cell body were counted as neurites. Only process-bearing cells were analyzed.

For assay [2], the system named is PC12 cells. Kind of assay: Uptake of uridine into PC12 cells. The note with it: P2Y receptor antagonists.
The subject of assay [3] is PLC/DAG/IP3 signaling pathway. Kind of assay: PI turnover (inositol phosphate formation) in NGF-differentiated PC12 cells. The note with it: for Formation of IP (PI turnover): 1 hour. The protocol: Analysis of PI turnover was performed as described by ([…] et al, J Neurochem 69: 704-12, 1997). Briefly, cells were labeled metabolically for 36 h with 1.25 microCurie (μCi)/dish of myo-[2-^3H]inositol (17-0 Curie/mmol; Amersham Biosciences) in serum-free MEM, washed twice with Hank's balanced salt solution (HBSS), and treated for 15 min with 10 mM lithium chloride in HBSS. Drugs were added in the presence of 10 mM lithium for 60 min at 37° C. Cells were lysed with ice-cold methanol, and lipids were removed by extraction with chloroform/methanol/water (2:2:1 by volume). Labeled water-soluble inositol phosphates were separated from free [^3H]inositol by ion-exchange chromatography, using AG 1-X8 columns (Bio-Rad), and 1M ammonium formate and 0.1M formic acid as eluent. Radioactivity was quantified by liquid scintillation spectrometry. P2Y2, P2Y4 and P2Y6 receptors activate the phospholipase C/diacylglycerol/inositol triphosphate (PLC/DAG/IP3) signaling pathway. […] These findings indicate that UTP promotes neurite outgrowth via P2Y receptors-mediated stimulation of the IP signaling pathway.

Assay [4] deals with PC12 cells. Kind of assay: NGF-induced neurite outgrowth in PC12 cells. The settings on record: for Number of neurites per cell: PC12, with NGF. The protocol:
PC12 cells were maintained in Minimal Essential Medium (MEM; Invitrogen, Carlsbad, Calif.) supplemented with 10% fetal bovine serum (FBS) at 37° C. Experimental incubations were for 2 or 4 days in medium containing 50 ng/ml mouse 2.5 S (2.5 subunit) NGF and 1% FBS, with or without test compounds. NGF and FBS were obtained from Invitrogen.
as §1

Assay [5] has as its system PC12 cells. Description: Intracellular UTP and CTP levels in PC12 cells by HPLC. The settings on record: PC12, 2 days with NGF, vs NGF only. As for the experimental part:
(§2) Brain tissue or cells was dissolved in methanol/chloroform (1:2 vol/vol), centrifuged, and the aqueous phase was dried under vacuum, resuspended in 100-200 μL water and separated by HPLC on an ion-exchange column (Alltech Hypersil APS-2, 5 μM, 250×4.6 mm). CDP-choline was eluted with a linear gradient of NaH2PO4 buffers A (1.75 mM NaH2PO4, pH 2.9) and B (500 mM, pH 4.5), which allowed resolution of CDP-choline from closely co-eluting substances such as UMP over 40 min. The retention time for CDP-choline was 9.5 min. Individual nucleotide peaks were detected by UV absorption at […], and were identified by comparison with the positions of authentic standards, as well as by the addition of nucleotide standards to selected samples.
Levels of intracellular UTP and CTP were analyzed by HPLC as described for Example 5, except that 5 mM NaH2PO4, pH 2.65 was used as buffer A.

Assay [6] deals with P2Y2, P2Y4 and P2Y6 receptors. Description: P2Y receptor expression in NGF-differentiated PC12 cells. The note with it: vs NGF alone. As for the experimental part:
Western blots utilized rabbit anti-P2Y2, anti-P2Y4 (both from Calbiochem); or rabbit anti-P2Y6 (Novus Biologicals, Littleton, Colo.). PC12 cells were treated as described above, except they were grown on 12 mm glass cover slips ([…] & Co., Vernon Hills, Ill.) coated with collagen. Proteins were visualized using immunofluorescence. […] For P2Y2 and P2Y4 visualization, control cultures were incubated with primary antibody plus a control antigen in order to ensure that the immuno-staining would be specific. Control antigen was not available for the P2Y6 receptor. Cells were then incubated in fluorochrome-conjugated secondary antibodies for 1 hour (goat anti-rabbit ALEXA 488 and goat anti-mouse ALEXA 568; Molecular Probes, Eugene, Oreg.) and mounted on glass slides with mounting media with or without DAPI (Vector Laboratories, Burlingame, Calif.). Control antigens provided with the primary antibodies were used to ensure that immuno-staining was specific. […] To determine whether these receptors participate in the mechanism by which extracellular UTP affects neurite outgrowth, it was first determined whether the receptors are expressed in PC 12 cells, and whether exposure to NGF alters their expression, PC 12 cells were treated for 0-7 days with NGF and levels of the receptors measured. […]

Assay [7] deals with PC 12 cells. Description: Intracellular CDP-choline levels in PC12 cells treated with uridine. The settings on record: uridine treatment, after 50 minutes. As for the experimental part: as §2

In the case of `Cc1nc(N=Nc2ccc(S(=O)(=O)O)cc2S(=O)(=O)O)c(COP(=O)(O)O)c(C=O)c1O` [PPADS, pyridoxal-phosphate-6-azophenyl-2′,4′ disulfonic acid], the “Block of uridine enhancement of NGF-stimulated neurite outgrowth” value (from here on “Block … of NGF-stimulated neurite outgrowth”) in assay [1] (antagonist 30 μM) was “significantly (p<0.05 or 0.001) blocked”. Further, in assay [2], the “Inhibition of uptake of uridine into PC12 cells” value (from here on “Inhibition”) is recorded as “None of the P2Y receptor antagonists inhibited”. Moreover, the “Block of UTP-stimulated IP signaling” value in assay [3] (NGF-differentiated PC12, antagonist 100 μM) is listed as “significantly (p<0.05) blocked”.
With `Nc1c(S(=O)(=O)O)cc(Nc2ccc(Nc3nc(Cl)nc(Nc4cccc(S(=O)(=O)O)c4)n3)c(S(=O)(=O)O)c2)c2c1C(=O)c1ccccc1C2=O` [RB-2, reactive blue 2], the “Block … of NGF-stimulated neurite outgrowth” value in assay [1] (antagonist 10 μM) is “significantly (p<0.05 or 0.001) blocked”. Besides, the “Inhibition” value in assay [2] is on record as “None of the P2Y receptor antagonists inhibited”.
For `O=c1ccn([C@@H]2O[C@H](COP(=O)(O)OP(=O)(O)OP(=O)(O)O)[C@@H](O)[C@H]2O)c(=O)[nH]1` [UTP, uridine-5′-triphosphate], the “Formation of IP (PI turnover)” value in assay [3] (NGF-differentiated PC12, 100 μM) was “significantly increased”. In addition, the “Neurite outgrowth (neurites per cell)” value in assay [4] (PC12, NGF, 10 and 50 μM, 4 days, vs NGF only) is given as “significantly (p<0.01) enhanced”. Also, in assay [5] (100 μM), the “Intracellular CTP levels” value is recorded as “did not significantly affect” and the “Intracellular UTP levels” value was “did not significantly affect”.
With `Nc1ccn([C@@H]2O[C@H](CO)[C@@H](O)[C@H]2O)c(=O)n1` [cytidine], the Neurite outgrowth result in assay [4] (NGF-exposed PC12 cells, cytidine treatment) is “had no effect on neurite outgrowth”. In addition, in assay [5] (50 μM), the “Intracellular CTP levels” value was “did not significantly affect” and the “Intracellular UTP levels” value is reported as “did not significantly affect”.
`Cc1ccc(C(=O)Nc2ccc(S(=O)(=O)O)c3cc(S(=O)(=O)O)cc(S(=O)(=O)O)c23)cc1NC(=O)c1cccc(NC(=O)Nc2cccc(C(=O)Nc3cc(C(=O)Nc4ccc(S(=O)(=O)O)c5cc(S(=O)(=O)O)cc(S(=O)(=O)O)c45)ccc3C)c2)c1` [suramin]: the “Block … of NGF-stimulated neurite outgrowth” value in assay [1] (antagonist 30 μM) is “significantly (p<0.05 or 0.001) blocked”. The “Inhibition” value in assay [2] is reported as “None of the P2Y receptor antagonists inhibited”.
Regarding `O=c1ccn([C@@H]2O[C@H](CO)[C@@H](O)[C@H]2O)c(=O)[nH]1` [uridine], the “Formation of IP (PI turnover)” value in assay [3] (NGF-differentiated PC12, 50 μM) was “significantly increased”. Also, in assay [4] (NGF-differentiated PC12 cells), the Average neurite length result is given as “did not significantly affect”. Moreover, in assay [4] (PC12, NGF, 50 μM, 4 days, vs NGF only), the “Number of neurite branch points per cell” value is “significantly (p<0.01) increased”. In addition, the Production of neurites entry in assay [4] (PC12, absence of NGF, 50 μM, 2 or 4 days) was “did not result in the production of neurites”. Besides, in assay [4] (2-day treatment or lower concentrations (10, 25 μM)), the “Number of neurites per cell” value is reported as “had no effect”. For the same compound, in assay [4] (50-200 μM, 4 days), the “Number of neurites per cell” value is listed as “significantly (p<0.01 or 0.001) enhanced”. Besides, the “Expression of P2Y2, P2Y4 and P2Y6 receptors” value in assay [6] was “did not affect the expression of the receptors”. In addition, the “Intracellular CDP-choline levels” value in assay [7] was “statistically significant increase”. Further, in assay [5] (50 μM), the “Intracellular CTP levels” value is “significantly (p<0.05) increased” and the “Intracellular UTP levels” value is reported as “significantly (p<0.05) increased”.
